Experimental data as given in patent US20170072033A1, “LIPOSOMAL COMPOSITIONS FOR MUCOSAL DELIVERY” (GlaxoSmithKline Biologicals, SA, priority 2014, published 2017).

Assay: Rabbit pyrogen test
Conditions: ng CRX-601/kg animal body weight
Experimental: The test was performed at Pacific Biolabs (Hercules, Calif.) as per their SOP 16E-02, which follows procedures outlined in USP<151>.

Compound CCCCCCCCCCC[C@H](CC(=O)N[C@H]1[C@H](OC[C@H](NC(=O)C[C@@H](CCCCCCCCCCC)OCCCCCCCCCC)C(=O)O)O[C@H](CO)[C@@H](OP(=O)(O)O)[C@@H]1OC(=O)C[C@@H](CCCCCCCCCCC)OCCCCCCCCCC)OCCCCCCCCCC [CRX-601] has a max non-pyrogenic dose of 0.0025 µg/kg.
